Laboratory results from US5607929A, “Antiviral dibenzothiazepinone derivatives” (Glaxo Wellcome Inc., priority 1991, dated 1997).
Read-outs that look alike come from different tables or passages of the source.

System: HIV
Experiment: HIV (MT4 assay), in vitro antiviral activity
Type: cell-based

Row | Compound | IC50 | IC50 (Human immunodeficiency virus 1)
1 | 4-fluorodibenzothiazepin-11(10H)-one-5,5-dioxide [15(iv)] | 1.8 µM | –
2 | O=C1Nc2ccccc2Sc2c(F)cccc21 [14(iv), 4-Fluoro-10,11-dihydrobenzo[b,f][1,4]thiazepin-11-one] | – | 1.1 µM
3 | CN1C(=O)c2cccc(F)c2Sc2ccccc21 [17(i), 4-Fluoro-10-methyl-10,11-dihydrobenzo[b,f][1,4] thiazepin-11-one] | – | 0.7 µM
4 | O=C1Nc2ccccc2S(=O)(=O)c2ccccc21 [Example 5, 10,11-Dihydrodibenzo[b,f][1,4]thiazepin-11-one-5,5-dioxide] | – | 13 µM
5 | O=C1Nc2ccccc2Sc2c1cccc2C(F)(F)F [Example 7, 4-Trifluoromethyl-10,11-dihydrodibenzo[b,f][1,4]thiazepin-11-one] | – | 2.5 µM
6 | CN1C(=O)c2cccc(C(F)(F)F)c2Sc2ccccc21 [Example 10, 10-Methyl-4-trifluoromethyl-10,11-dihydrodibenzo[b,f][1,4]thiazepin-11-one] | – | 2.8 µM
7 | CSc1cccc2c1Sc1ccccc1NC2=O [Example 19, 4-Thiomethyl-10,11-dihydrodibenzo[b,f][1,4]thiazepin-11-one] | – | 2.3 µM
8 | COc1ccc2c(c1)S(=O)(=O)c1ccccc1C(=O)N2 [Example 22, 7-Methoxy-10,11-dihydrodibenzo[b,f][1,4]thiazepin-11-one-5,5-dioxide] | – | 12.8 µM
